Experiments:
[1] = Spectrophotometric titration; type: binding
From the text: (§1) Changes in the optical absorption characteristics of Nd^3+ were monitored using a Cary 6000i UV/Vis–NIR Spectrometer (Agilent) using 1 cm semimicro quartz cuvettes (Starna) in double-beam mode, where the ^4I9/2 → ^4G5/2, ^2G7/2 transitions[34] were monitored between 560 and 605 nm with a 0.075 nm interval and 1.0 nm spectral bandwidth. Changes in the optical absorption characteristics of ^243Am^3+ and ^248Cm^3+ were monitored using a Flame-S-VIS–NIR-ES spectrometer coupled to a DH-2000-BAL dual-mode light source (Ocean Optics) with a single 1 cm semimicro quartz cuvette (Starna). The light source and spectrometer were optically coupled to the CUV sample (Ocean Optics) holder using 2 m fiberoptics (200 μm) and the parameters for acquisition were 0.369 nm interval and 1000 scans averaged with an integration time/scan 1.08 ms (total acquisition time ~ 1 s). The complexation of Am^3+ with the ligands was monitored in the 495–525 nm spectral region, looking at the ^7F0′ → ^5L6′ transition[23],[35]. For Cm^3+, ligand complexation was monitored in the 365–410 nm spectral region, looking at the ^8S7/2 → ^2Ji (i = {15}, {13,9}, {11,17}) manifold transitions[24],[25],[36]. Changes in aqueous p[H^+] were monitored throughout each titration step using a Gran-calibrated Orion Ross Semi-micro glass electrode. Baseline correction was applied to all datasets and was typically a simple linear subtraction. However, in the case of the ^248Cm/H4pypa-peg spectra, the tail end of the ligand absorption overlapped the hypersensitive Cm peaks. In this case the background correction was applied using a 5th-order empirical polynomial. Finally, the spectroscopic data was analyzed using the HypSpec software package[33],[37]. Full details of the titrand and titrant solutions for each titration are included in the Supplemental Information.
The coordination of Nd^3+ by H4octapa and H4pypa-peg was also studied using spectroscopic methods. Figures 5A, B show the collected spectrophotometric signatures for H4octapa and H4pypa-peg, respectively.4 M^3++L^4-⇆ML^-β101=ML^-/[M^3+]L^4- 5 M^3++H^++L^4-⇆MHLaqβ111=MHLaq/[M^3+L^4-H^+]
Optical absorption features of ^4I9/2 → ^4G5/2, ^2G7/2 transitions for Nd^3+ are perturbed due to the introduction of increasing quantities of complexants, resulting in characteristic red-shifted changes. In Fig. 5A a broad absorption band with λmax = 577 nm is distinctly different to the optical absorption of free Nd^3+ metal in Fig. 5B. The differences can be attributed to the nitrate complexation of Nd^3+ as the spectrophotometric titration with H4octapa was performed in 2.0 M (Na^+/H^+)NO3. […] The HypSpec interpretation of the Nd/pypa-peg titration points to the presence of three absorbing species: Nd^3+, NdHL(aq), and NdL^−. The conditional stability constants obtained spectroscopically are listed in Table 3, showing good agreement with the stability constants determined using potentiometry. The complex stability constants for structurally similar APC ligands found in the literature are also presented (H4pypa[18] and H4py4pa[57]).
2. Spectrophotometric titration parameters
Nd3+: The titrand solution consisting of 1.980 mL of 7.57 mM Nd(ClO4)3 at p[H+] = 1.61 was blended with 1.965 mL of titrant solution containing 7.62 mM Nd3+, 18.57 mM H4octapa, […]
Am3+: The titrand solution consisting of 0.842 mL of 0.810 mM Am(ClO4)3 at p[H+] =1.66 was blended with 0.811 mL of titrant solution containing 0.815 mM Am3+, 8.95 mM H4octapa, at p[H+] ≈ 5.0 – 6.0.
Nd3+: The titrand solution consisting of 0.801 mL of 9.82 mM Nd(ClO4)3 at p[H+] = 1.61 was blended with 1.176 mL of titrant solution containing 9.91 mM Nd3+ and 24.58 mM H4pypa-peg in with p[H+] ≈ 3.0 – 4.0.
Am3+: The titrand solution consisting of 0.806 mL of 0.791 mM Am(ClO4)3 at p[H+] = 1.41 was blended with 0.787 mL of titrant solution containing 0.801 mM Am3+ and 15.09 mM H4pypa-peg at p[H+] ≈ 5 – 6.
Cm3+: The titrand solution consist ing of 0.809 mL of 1.00 mM Cm(ClO4)3 at p[H+] = 1.34 was […]

[2] = Spectrophotometric titration; type: binding; remark: listed apart in the source
From the text: as §1
To further validate the competitive solvent extraction methodology the complexation of Am^3+ with H4octapa and Cm^3+ with H4pypa-peg was studied spectrophotometrically. These titrations monitored the ligand-induced changes on the optical absorption spectra of free Am^3+ at λmax = 503.0 nm, (Fig. 8A) and Cm^3+ at λmax = 375.0, 380.6, 396.5 nm, (Fig. 8C). The presence of both ligands induced new red-shifted absorption signatures in each monitored titration. […] Excellent agreement between the solvent extraction and spectrophotometry was attained for the β101 values for the formation of [Am(octapa)]^− albeit the uncertainty associated with a constant measured using competitive liquid–liquid distribution is rather large and points out the shortcomings of this method. A variance between two analytical methods is larger for [Cm(pypa-peg)]^− possibly due to free ligand absorption interferences.
2. Spectrophotometric titration parameters […]
H4octapa, at p[H+] ≈ 5.0 – 6.0. […]
Am3+: The titrand solution consisting of 0.806 mL of 0.791 mM Am(ClO4)3 at p[H+] = 1.41 was
blended with 0.787 mL of titrant solution containing 0.801 mM Am3+ and 15.09 mM
H4pypa-peg at p[H+] ≈ 5 – 6. […]

[3] = spectrophotometrically determined in 2.0 M (Na+/H+)ClO4, 20 °C
[4] = I = 2.0 M (Na+/H+)ClO4 at 20.0 °C (spectrophotometric titration)

| Structure (SMILES) | logβ101 (ML), Nd ([1]; spectrophotometrically determined in 2.0 M (Na+/H+)NO3) | logβ101 (ML), Am3+ ([2]; spectrophotometrically measured, I = 2.0 M (Na+/H+)NO3, T = 25 ± 1 °C, ±3σ) | logK111, Nd ([1]; spectrophotometrically determined in 2.0 M (Na+/H+)ClO4) | logβ101 (ML), Nd [1, 3] | logβ111 (MHL), Nd [1, 3] | logβ101 (ML), Am3+ [2, 4] | logβ111 (MHL), Am3+ [2, 4] | logβ121 (MH2L), Am3+ [2, 4] |
| --- | --- | --- | --- | --- | --- | --- | --- | --- |
| O=C(O)CN(CCN(CC(=O)O)Cc1cccc(C(=O)O)n1)Cc1cccc(C(=O)O)n1 [H4octapa, 6,6′-((ethane-1,2-diylbis–((carboxymethyl)azanediyl))bis–(methylene))dipicolinic acid] | 18.15 (1) | 19.28 (1) |  |  |  |  |  |  |
| O=C(O)CN(Cc1cc(-c2cn(CCOCCOCCO)nn2)cc(CN(CC(=O)O)Cc2cccc(C(=O)O)n2)n1)Cc1cccc(C(=O)O)n1 [H4pypa-peg, 6,6'-((((4-(1-(2-(2-(2-hydroxyethoxy)ethoxy)ethyl)-1H-1,2,3-triazol-4-yl)pyridine-2,6-diyl)bis–(methylene))bis–((carboxymethyl)azanediyl))bis–(methylene)) dipicolinic acid] |  |  | 1.89 (6) | 18.15 (6) | 20.04 (4) |  |  |  |
| O=C(O)CN(CCN(CCN(CC(=O)O)CC(=O)O)CC(=O)O)CCN(CC(=O)O)CC(=O)O [H6ttha, triethylenetetraamine-N,N,N',N'',N''',N'''-hexaacetic acid] |  |  |  | 21.90(7) | 25.56(7) | 23.25(3) | 27.02(3) | 28.84(2) |
| O=C(O)CN(CCN(CC(=O)O)CC(=O)O)CCN(CC(=O)O)CC(=O)O [H5dtpa, diethylenetriamine-N,N,N',N'',N''-pentaacetic acid] |  |  |  | 20.23(2) | 21.59(2) | 21.45(1) | 22.62(2) |  |
